# From patent publication US8188059B2, “Compounds and methods for modulating expression of GCGR” (Isis Pharmaceuticals, Inc., priority 2006, dated 2012)
# Strand notation (5' to 3'): a small letter for the sugar, then the base; units joined by * are phosphorothioate-linked, units joined directly phosphodiester-linked; [ ] holds rarer units or linkages, { } end groups; capitals alone tell only the bases. e = 2'-O-(2-methoxyethyl) (MOE); l = locked nucleic acid (LNA); [5mC] = 5-methylcytosine; d = 2'-deoxy (DNA)
# Tests used:
# Assay type in all cases: in vivo, mouse
# PTEN mRNA = PTEN mRNA levels in liver, kidney and fat, Balb/c mice, single 8 μmol/kg i.p. (Example 6, Table 48); conditions: 8 μmol/kg single i.p., 72 h, saline = 100
# Text: (§1) Each dose group consisted of four animals. Shown in Table 46 are the sequences and motifs of the PTEN antisense compounds used in this study. Bolded residues indicate 2′-O-methoxyethyl moieties (2′-MOE) and italicized residues indicate Methyleneoxy BNA nucleotides. Each antisense compound comprises phosphorothioate linkages throughout. In addition, the cytosine residues in the gap of ISIS 384073 and in the wings of ISIS 392056, ISIS 392057, ISIS 392061 and ISIS 392063 are replaced with 5-methylcytosines. Antisense compounds target published PTEN nucleic acids, including Genbank Accession No. U92437.1 (SEQ ID NO: 13).
# (§2) Mice were sacrificed 72 hours following injection to determine serum transaminase levels (Table 47); liver and spleen weights (Table 47); and PTEN mRNA levels in liver, kidney and fat (Table 48), according to procedures described herein and well know to one of ordinary skill in the art.
# [1] = Transaminase levels, liver and spleen weights, body weight (Example 6, Table 47); conditions: 8 μmol/kg single i.p.; 72 h; Balb/c mice
# Text: as §1, §2
# GCGR mRNA = GCGR mRNA levels in liver of C57/BL6 mice, single i.p. dose (Example 4, Tables 35-41); conditions: 48 h
# Description: (§3) Eight-week old male C57/BL6 mice (Jackson Laboratory, Bar Harbor, Me.) were administered a single dose of GCGR oligonucleotide by intraperitoneal injection at a concentration of […]. Each dose group consisted of four animals. Shown in Table 31 are the sequences, motifs and conjugates of the GCGR antisense compounds used in this study. Bolded residues indicate 2′-O-methoxyethyl (2′-MOE) moieties. All compounds comprise phosphorothioate internucleoside linkages throughout and each cytosine is replaced with 5-methylcytosine. ISIS 386626, ISIS 386627 and ISIS 386628 further comprise a C16 conjugate group attached to the 2′-O position of the sugar via a diamide linkage (2′-OCH2C(═O)N(H)(CH2)4N(H)C(═O)—(CH2)15CH3). GCGR antisense compounds target published GCGR sequences, including Genbank® Accession No. BC031885.1 (SEQ ID NO: 7).
# (§4) Mice were sacrificed 48 hours following injection to determine serum transaminase levels (Table 32); liver, white adipose tissue (WAT), spleen and kidney weight (Table 33); cholesterol, triglyceride and glucose levels (Table 34); GCGR mRNA levels (Tables 35-41); and full-length and total oligonucleotide concentration in liver and kidney (Table 42). Endpoints were assessed using methods described herein and well known to those of ordinary skill in the art. Data is included from a pre-treatment bleed (Pre-Bleed) and post-treatment bleed (Post-Bleed).
# To determine whether the phenotypic changes shown above correlated with a decrease in GCGR mRNA, treated animals were evaluated for levels of target mRNA in liver by real time PCR according to methods described herein. Tables 35 to 41 show results from direct comparisons of the antisense compounds targeting GCGR nucleic acid for their effect on target expression. Results are expressed as percent of saline control.
# [2] = ALT & AST levels, C57/BL6 mice (Example 4, Table 32); conditions: for ALT Pre-Bleed / AST Pre-Bleed: pre-treatment bleed; for ALT Post-Bleed / AST Post-Bleed: 48 hours following injection
# Description: as §3, §4
# [3] = Organ weights: liver, white adipose tissue, spleen, kidney (Example 4, Table 33); conditions: 48 h, C57/BL6 mice
# Description: as §3, §4
# [4] = Triglyceride, cholesterol and glucose levels, pre-bleed and post-bleed (Example 4, Table 34); set-up: TRIG Pre-Bleed / TRIG Post-Bleed / CHOL Pre-Bleed / CHOL Post-Bleed / Glucose Pre-Bleed / Glucose Post-Bleed: unit not given here; conditions: C57/BL6 mice; for CHOL Pre-Bleed / Glucose Pre-Bleed / TRIG Pre-Bleed: pre-treatment bleed; for CHOL Post-Bleed / Glucose Post-Bleed / TRIG Post-Bleed: post-treatment bleed, 48 h
# [5] = Total and full-length antisense compound concentrations in liver and kidney (Example 4, Table 42); conditions: C57/BL6 mice; single i.p. dose; 48 h; dose not given
# Description: as §3, §4
# Treatment with the 2-10-2 MOE gapmers led to a significant dose-dependent decrease in GCGR mRNA expression. […] To determine whether the observed increase in efficiency with the short antisense compounds is due to an increase in antisense compound accumulation, full-length and total antisense compound concentration in the liver and kidney were determined.
substance,measurement,setting,value
"141923 (antisense CCTTCCCTGAAGGTTCCTCC; sugars from the 5' end e5 d10 e5, all phosphorothioate, methylation of C not given here) [compound 141923]",% PTEN mRNA levels in Fat,PTEN mRNA,118%
same,% PTEN mRNA levels in Kidney,PTEN mRNA,133%
same,% PTEN mRNA levels in Liver,PTEN mRNA,102%
same,ALT,[1],34.8 IU/L
same,AST,[1],89.5 IU/L
same,Liver Weight,[1],101 % Saline
same,Spleen Weight,[1],108 % Saline
384073 (antisense lG*lC*lT*dA*dG*d[5mC]*d[5mC]*dT*d[5mC]*dT*dG*dG*dA*lT*lT*lT) [compound 384073],% PTEN mRNA levels in Fat,PTEN mRNA,77%
same,% PTEN mRNA levels in Kidney,PTEN mRNA,74%
same,% PTEN mRNA levels in Liver,PTEN mRNA,24%
same,ALT,[1],29.3 IU/L
same,AST,[1],57.8 IU/L
same,Liver Weight,[1],115 % Saline
same,Spleen Weight,[1],111 % Saline
386628 (antisense TGTCTTGCTGCTTT; chemistry not fully specified) [compound 386628],GCGR mRNA levels in liver,"GCGR mRNA; 6.25 mg/kg single i.p., Table 38 comparison ISIS 148364 & ISIS 386628",77% of saline control
same,GCGR mRNA levels in liver,"GCGR mRNA; 6.25 mg/kg single i.p., Table 41 comparison ISIS 386628 & ISIS 386594",97% of saline control
same,GCGR mRNA levels in liver,"GCGR mRNA; 12.5 mg/kg single i.p., Table 38 comparison ISIS 148364 & ISIS 386628",53% of saline control
same,GCGR mRNA levels in liver,"GCGR mRNA; 12.5 mg/kg single i.p., Table 41 comparison ISIS 386628 & ISIS 386594",38% of saline control
same,GCGR mRNA levels in liver,"GCGR mRNA; 25 mg/kg single i.p., Table 38 comparison ISIS 148364 & ISIS 386628",18% of saline control
same,GCGR mRNA levels in liver,"GCGR mRNA; 25 mg/kg single i.p., Table 41 comparison ISIS 386628 & ISIS 386594",13% of saline control
same,GCGR mRNA levels in liver,"GCGR mRNA; 50 mg/kg single i.p., Table 38 comparison ISIS 148364 & ISIS 386628",2% of saline control
same,GCGR mRNA levels in liver,"GCGR mRNA; 50 mg/kg single i.p., Table 41 comparison ISIS 386628 & ISIS 386594",4% of saline control
same,ALT Pre-Bleed,[2]; 6.25 mg/kg dose group,22 IU/L
same,AST Pre-Bleed,[2]; 6.25 mg/kg dose group,40 IU/L
same,ALT Pre-Bleed,[2]; 12.5 mg/kg dose group,28 IU/L
same,AST Pre-Bleed,[2]; 12.5 mg/kg dose group,42 IU/L
same,ALT Pre-Bleed,[2]; 25 mg/kg dose group,24 IU/L
same,AST Pre-Bleed,[2]; 25 mg/kg dose group,40 IU/L
same,ALT Pre-Bleed,[2]; 50 mg/kg dose group,28 IU/L
same,AST Pre-Bleed,[2]; 50 mg/kg dose group,44 IU/L
same,ALT Post-Bleed,[2]; single i.p. dose 6.25 mg/kg,29 IU/L
same,AST Post-Bleed,[2]; single i.p. dose 6.25 mg/kg,59 IU/L
same,ALT Post-Bleed,[2]; single i.p. dose 12.5 mg/kg,35 IU/L
same,AST Post-Bleed,[2]; single i.p. dose 12.5 mg/kg,75 IU/L
same,ALT Post-Bleed,[2]; single i.p. dose 25 mg/kg,32 IU/L
same,AST Post-Bleed,[2]; single i.p. dose 25 mg/kg,57 IU/L
same,ALT Post-Bleed,[2]; single i.p. dose 50 mg/kg,68 IU/L
same,AST Post-Bleed,[2]; single i.p. dose 50 mg/kg,76 IU/L
same,Organ weight: Kidney,[3]; 6.25 mg/kg single i.p.,102 % saline control
same,Organ weight: Liver,[3]; 6.25 mg/kg single i.p.,98 % saline control
same,Organ weight: Spleen,[3]; 6.25 mg/kg single i.p.,151 % saline control
same,Organ weight: WAT,[3]; 6.25 mg/kg single i.p.,106 % saline control
same,Organ weight: Kidney,[3]; 12.5 mg/kg single i.p.,99 % saline control
same,Organ weight: Liver,[3]; 12.5 mg/kg single i.p.,101 % saline control
same,Organ weight: Spleen,[3]; 12.5 mg/kg single i.p.,114 % saline control
same,Organ weight: WAT,[3]; 12.5 mg/kg single i.p.,111 % saline control
same,Organ weight: Kidney,[3]; 25 mg/kg single i.p.,109 % saline control
same,Organ weight: Liver,[3]; 25 mg/kg single i.p.,102 % saline control
same,Organ weight: Spleen,[3]; 25 mg/kg single i.p.,113 % saline control
same,Organ weight: WAT,[3]; 25 mg/kg single i.p.,97 % saline control
same,Organ weight: Kidney,[3]; 50 mg/kg single i.p.,99 % saline control
same,Organ weight: Liver,[3]; 50 mg/kg single i.p.,104 % saline control
same,Organ weight: Spleen,[3]; 50 mg/kg single i.p.,126 % saline control
same,Organ weight: WAT,[3]; 50 mg/kg single i.p.,100 % saline control
same,CHOL Pre-Bleed,[4]; 6.25 mg/kg group,83
same,Glucose Pre-Bleed,[4]; 6.25 mg/kg group,228
same,TRIG Pre-Bleed,[4]; 6.25 mg/kg group,117
same,CHOL Post-Bleed,[4]; 6.25 mg/kg single i.p.,85
same,Glucose Post-Bleed,[4]; 6.25 mg/kg single i.p.,229
same,TRIG Post-Bleed,[4]; 6.25 mg/kg single i.p.,121
same,CHOL Pre-Bleed,[4]; 12.5 mg/kg group,90
same,Glucose Pre-Bleed,[4]; 12.5 mg/kg group,231
same,TRIG Pre-Bleed,[4]; 12.5 mg/kg group,90
same,CHOL Post-Bleed,[4]; 12.5 mg/kg single i.p.,94
same,Glucose Post-Bleed,[4]; 12.5 mg/kg single i.p.,240
same,TRIG Post-Bleed,[4]; 12.5 mg/kg single i.p.,123
same,CHOL Pre-Bleed,[4]; 25 mg/kg group,84
same,Glucose Pre-Bleed,[4]; 25 mg/kg group,210
same,TRIG Pre-Bleed,[4]; 25 mg/kg group,102
same,CHOL Post-Bleed,[4]; 25 mg/kg single i.p.,85
same,Glucose Post-Bleed,[4]; 25 mg/kg single i.p.,223
same,TRIG Post-Bleed,[4]; 25 mg/kg single i.p.,129
same,CHOL Pre-Bleed,[4]; 50 mg/kg group,88
same,Glucose Pre-Bleed,[4]; 50 mg/kg group,209
same,TRIG Pre-Bleed,[4]; 50 mg/kg group,102
same,CHOL Post-Bleed,[4]; 50 mg/kg single i.p.,95
same,Glucose Post-Bleed,[4]; 50 mg/kg single i.p.,232
same,TRIG Post-Bleed,[4]; 50 mg/kg single i.p.,98
same,"Full-length antisense compound concentration, Kidney",[5],305 µg/g
same,"Full-length antisense compound concentration, Liver",[5],202 µg/g
same,"Total antisense compound concentration, Kidney",[5],496 µg/g
same,"Total antisense compound concentration, Liver",[5],286 µg/g
391172 (antisense lC*lT*dA*dG*dC*dC*dT*dC*dT*dG*dG*dA*lT*lT*lT) [compound 391172],% PTEN mRNA levels in Fat,PTEN mRNA,101%
same,% PTEN mRNA levels in Kidney,PTEN mRNA,63%
same,% PTEN mRNA levels in Liver,PTEN mRNA,18%
same,ALT,[1],32.8 IU/L
same,AST,[1],48.5 IU/L
same,Liver Weight,[1],120 % Saline
same,Spleen Weight,[1],112 % Saline
392061 (antisense l[5mC]*lT*dA*dG*dC*dC*dT*dC*dT*dG*dG*dA*lT*lT) [compound 392061],% PTEN mRNA levels in Fat,PTEN mRNA,85%
same,% PTEN mRNA levels in Kidney,PTEN mRNA,61%
same,% PTEN mRNA levels in Liver,PTEN mRNA,24%
same,ALT,[1],42.0 IU/L
same,AST,[1],189 IU/L
same,Liver Weight,[1],123 % Saline
same,Spleen Weight,[1],111 % Saline
